Test results as given in ChEMBL document CHEMBL4507291 (2021).

What was measured:
[1] = test system: Tyrosine-protein kinase ABL1 (Homo sapiens), P00519 [F317L]
[2] = test system: Tyrosine-protein kinase ABL1 (Homo sapiens), P00519 [H396P]
[3] = target: Serine/threonine-protein kinase B-raf (Homo sapiens) (UniProt P15056)
[4] = target: Tyrosine-protein kinase BTK (Homo sapiens) (UniProt Q06187)
[5] = test system: Epidermal growth factor receptor (Homo sapiens), P00533 [G719C]
[6] = test system: Epidermal growth factor receptor (Homo sapiens), P00533 [UNDEFINED MUTATION]
[7] = target: Tyrosine-protein kinase Fer (Homo sapiens) (UniProt P16591)
Tyrosine-protein kinase Fer (Homo sapiens), sequence (P16591 whole entry, looked up): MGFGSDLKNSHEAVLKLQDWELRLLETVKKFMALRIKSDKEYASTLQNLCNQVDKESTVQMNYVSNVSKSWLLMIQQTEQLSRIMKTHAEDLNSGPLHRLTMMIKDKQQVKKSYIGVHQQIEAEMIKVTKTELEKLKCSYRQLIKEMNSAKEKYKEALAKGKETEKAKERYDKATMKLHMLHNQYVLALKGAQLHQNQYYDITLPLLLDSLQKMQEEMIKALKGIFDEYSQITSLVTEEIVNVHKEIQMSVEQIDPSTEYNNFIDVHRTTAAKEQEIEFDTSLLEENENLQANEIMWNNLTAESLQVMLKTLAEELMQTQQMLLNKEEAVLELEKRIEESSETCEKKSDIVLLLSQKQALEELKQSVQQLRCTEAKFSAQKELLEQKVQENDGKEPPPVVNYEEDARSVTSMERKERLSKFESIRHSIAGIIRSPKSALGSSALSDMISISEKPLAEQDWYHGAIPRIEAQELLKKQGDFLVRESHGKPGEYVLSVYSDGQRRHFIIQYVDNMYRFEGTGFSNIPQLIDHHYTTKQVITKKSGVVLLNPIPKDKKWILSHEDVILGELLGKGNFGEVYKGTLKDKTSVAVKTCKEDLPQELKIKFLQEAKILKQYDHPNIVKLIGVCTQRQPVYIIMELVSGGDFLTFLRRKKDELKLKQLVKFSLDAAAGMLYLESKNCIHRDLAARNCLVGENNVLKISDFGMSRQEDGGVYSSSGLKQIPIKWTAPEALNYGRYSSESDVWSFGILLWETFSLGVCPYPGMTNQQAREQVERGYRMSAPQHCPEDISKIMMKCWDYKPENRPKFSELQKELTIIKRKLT

[8] = test system: Receptor-type tyrosine-protein kinase FLT3 (Homo sapiens), P36888 [UNDEFINED MUTATION]
[9] = target: Serine/threonine-protein kinase 10 (Homo sapiens) (UniProt O94804)
[10] = target: Mitogen-activated protein kinase kinase kinase kinase 3 (Homo sapiens) (UniProt Q8IVH8)
[11] = target: T1, Dual specificity mitogen-activated protein kinase kinase 3 (Homo sapiens) (UniProt P46734)
T1 sequence (whole entry): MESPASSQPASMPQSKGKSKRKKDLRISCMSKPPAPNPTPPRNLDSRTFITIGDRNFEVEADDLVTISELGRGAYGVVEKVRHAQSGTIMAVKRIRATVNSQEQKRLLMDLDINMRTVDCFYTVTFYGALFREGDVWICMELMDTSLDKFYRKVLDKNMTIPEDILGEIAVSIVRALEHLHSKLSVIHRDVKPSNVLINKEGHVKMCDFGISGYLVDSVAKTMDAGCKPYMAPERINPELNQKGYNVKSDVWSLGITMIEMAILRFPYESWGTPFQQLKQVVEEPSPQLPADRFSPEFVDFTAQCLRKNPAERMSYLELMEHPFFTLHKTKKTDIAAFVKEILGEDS

[12] = target: T2, Dual specificity mitogen-activated protein kinase kinase 6 (Homo sapiens) (UniProt P52564)
T2 sequence (whole entry): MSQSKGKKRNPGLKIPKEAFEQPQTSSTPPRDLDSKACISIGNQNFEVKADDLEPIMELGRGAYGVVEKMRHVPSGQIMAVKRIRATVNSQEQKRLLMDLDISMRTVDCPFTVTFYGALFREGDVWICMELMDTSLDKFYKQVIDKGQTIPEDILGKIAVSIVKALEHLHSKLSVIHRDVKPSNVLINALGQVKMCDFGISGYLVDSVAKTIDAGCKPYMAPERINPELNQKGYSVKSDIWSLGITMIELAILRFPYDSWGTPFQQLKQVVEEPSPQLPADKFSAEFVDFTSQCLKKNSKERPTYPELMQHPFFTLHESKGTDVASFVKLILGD

[13] = target: Serine/threonine-protein kinase PAK 6 (Homo sapiens) (UniProt Q9NQU5)
Serine/threonine-protein kinase PAK 6 (Homo sapiens), sequence (Q9NQU5 whole entry, looked up): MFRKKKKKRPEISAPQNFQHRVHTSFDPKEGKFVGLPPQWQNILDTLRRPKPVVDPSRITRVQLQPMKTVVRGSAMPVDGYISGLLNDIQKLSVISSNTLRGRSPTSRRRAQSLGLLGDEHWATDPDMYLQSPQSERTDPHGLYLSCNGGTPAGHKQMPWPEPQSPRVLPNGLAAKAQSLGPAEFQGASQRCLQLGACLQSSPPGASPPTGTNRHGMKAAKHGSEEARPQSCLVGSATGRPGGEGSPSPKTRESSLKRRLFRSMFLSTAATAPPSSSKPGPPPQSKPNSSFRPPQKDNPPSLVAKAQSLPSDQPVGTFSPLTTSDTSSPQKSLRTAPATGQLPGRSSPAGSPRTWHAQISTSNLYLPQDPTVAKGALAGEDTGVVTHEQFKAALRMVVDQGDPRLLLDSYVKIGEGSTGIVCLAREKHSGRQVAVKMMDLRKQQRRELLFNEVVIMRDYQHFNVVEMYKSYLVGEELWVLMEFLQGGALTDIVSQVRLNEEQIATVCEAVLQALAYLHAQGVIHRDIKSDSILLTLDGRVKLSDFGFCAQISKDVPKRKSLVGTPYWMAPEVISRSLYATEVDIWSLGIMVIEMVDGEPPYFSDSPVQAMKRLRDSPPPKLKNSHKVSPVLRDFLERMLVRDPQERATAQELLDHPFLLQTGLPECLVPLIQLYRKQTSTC

[14] = target: Cyclin-dependent kinase 18 (Homo sapiens) (UniProt Q07002)
Cyclin-dependent kinase 18 (Homo sapiens), sequence (Q07002 whole entry): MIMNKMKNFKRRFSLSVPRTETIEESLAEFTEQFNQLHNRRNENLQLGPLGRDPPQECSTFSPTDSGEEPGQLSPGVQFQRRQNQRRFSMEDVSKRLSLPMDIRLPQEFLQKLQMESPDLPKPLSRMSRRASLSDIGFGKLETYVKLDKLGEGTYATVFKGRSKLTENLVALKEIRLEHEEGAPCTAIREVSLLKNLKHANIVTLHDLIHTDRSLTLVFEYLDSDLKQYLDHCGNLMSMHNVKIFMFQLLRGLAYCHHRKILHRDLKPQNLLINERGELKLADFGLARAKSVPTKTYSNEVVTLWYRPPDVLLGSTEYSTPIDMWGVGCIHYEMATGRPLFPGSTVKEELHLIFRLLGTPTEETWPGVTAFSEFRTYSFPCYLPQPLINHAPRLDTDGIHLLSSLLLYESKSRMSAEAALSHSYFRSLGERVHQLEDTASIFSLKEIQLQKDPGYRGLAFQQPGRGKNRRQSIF

[15] = target: Calcium-dependent protein kinase 1 (Plasmodium falciparum) (UniProt P62344)
[16] = target: Phosphatidylinositol 4-phosphate 3-kinase C2 domain-containing subunit beta (Homo sapiens) (UniProt O00750)
[17] = test system: Phosphatidylinositol 4,5-bisphosphate 3-kinase catalytic subunit alpha isoform (Homo sapiens), P42336 [E542K]
Phosphatidylinositol 4,5-bisphosphate 3-kinase catalytic subunit alpha isoform (Homo sapiens), P42336 [E542K], sequence (P42336 whole entry E542K, canonical isoform): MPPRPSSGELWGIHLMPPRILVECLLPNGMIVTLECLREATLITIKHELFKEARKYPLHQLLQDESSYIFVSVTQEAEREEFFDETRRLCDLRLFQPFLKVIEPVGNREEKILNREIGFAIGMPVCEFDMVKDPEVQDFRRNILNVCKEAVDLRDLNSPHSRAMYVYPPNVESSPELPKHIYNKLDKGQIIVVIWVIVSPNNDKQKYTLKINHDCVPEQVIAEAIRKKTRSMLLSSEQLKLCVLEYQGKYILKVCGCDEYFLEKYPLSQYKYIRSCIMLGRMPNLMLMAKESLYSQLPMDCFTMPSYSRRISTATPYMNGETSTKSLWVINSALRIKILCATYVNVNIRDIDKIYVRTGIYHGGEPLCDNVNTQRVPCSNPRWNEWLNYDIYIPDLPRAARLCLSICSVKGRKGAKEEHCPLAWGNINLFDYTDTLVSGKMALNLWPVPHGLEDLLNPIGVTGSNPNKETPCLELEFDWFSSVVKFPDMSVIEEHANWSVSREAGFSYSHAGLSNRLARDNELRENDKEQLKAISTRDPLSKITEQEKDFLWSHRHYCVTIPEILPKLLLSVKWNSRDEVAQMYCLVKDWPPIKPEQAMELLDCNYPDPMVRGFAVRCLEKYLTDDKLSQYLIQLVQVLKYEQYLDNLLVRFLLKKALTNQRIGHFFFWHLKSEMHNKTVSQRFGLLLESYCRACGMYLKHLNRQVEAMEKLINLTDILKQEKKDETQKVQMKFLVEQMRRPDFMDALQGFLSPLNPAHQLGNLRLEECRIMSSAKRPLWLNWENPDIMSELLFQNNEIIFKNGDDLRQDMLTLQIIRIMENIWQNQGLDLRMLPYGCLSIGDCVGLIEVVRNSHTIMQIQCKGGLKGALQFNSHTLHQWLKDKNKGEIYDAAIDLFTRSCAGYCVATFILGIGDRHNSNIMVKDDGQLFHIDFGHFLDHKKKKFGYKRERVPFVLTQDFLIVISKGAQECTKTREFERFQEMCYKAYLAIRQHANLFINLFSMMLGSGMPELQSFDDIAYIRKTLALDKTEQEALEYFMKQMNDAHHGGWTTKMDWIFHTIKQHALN

[18] = test system: Phosphatidylinositol 4,5-bisphosphate 3-kinase catalytic subunit alpha isoform (Homo sapiens), P42336 [I800L]
Phosphatidylinositol 4,5-bisphosphate 3-kinase catalytic subunit alpha isoform (Homo sapiens), P42336 [I800L], sequence (P42336 whole entry I800L, canonical isoform): as the sequence (P42336 whole entry E542K, canonical isoform) above, with K542E, I800L counted along it

[19] = target: Serine/threonine-protein kinase PLK2 (Homo sapiens) (UniProt Q9NYY3)
Serine/threonine-protein kinase PLK2 (Homo sapiens), sequence (Q9NYY3 whole entry, looked up): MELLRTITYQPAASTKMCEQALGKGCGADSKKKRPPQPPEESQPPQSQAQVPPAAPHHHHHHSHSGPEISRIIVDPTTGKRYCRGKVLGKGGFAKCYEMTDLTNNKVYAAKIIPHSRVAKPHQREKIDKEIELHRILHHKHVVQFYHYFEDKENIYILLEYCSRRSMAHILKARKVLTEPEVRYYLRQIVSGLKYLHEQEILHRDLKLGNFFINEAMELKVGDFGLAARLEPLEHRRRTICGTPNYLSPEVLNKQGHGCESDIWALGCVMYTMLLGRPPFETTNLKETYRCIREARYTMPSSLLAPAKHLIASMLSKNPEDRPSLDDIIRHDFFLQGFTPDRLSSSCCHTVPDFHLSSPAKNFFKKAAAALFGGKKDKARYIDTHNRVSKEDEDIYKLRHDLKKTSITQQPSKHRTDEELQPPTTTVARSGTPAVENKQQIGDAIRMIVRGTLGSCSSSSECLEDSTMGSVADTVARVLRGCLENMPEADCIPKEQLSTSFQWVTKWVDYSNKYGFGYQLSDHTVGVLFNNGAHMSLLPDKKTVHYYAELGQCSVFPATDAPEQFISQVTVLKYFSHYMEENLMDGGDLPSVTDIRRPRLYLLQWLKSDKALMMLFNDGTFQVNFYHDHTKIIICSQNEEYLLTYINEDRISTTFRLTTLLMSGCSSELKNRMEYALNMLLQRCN

[20] = test system: Proto-oncogene tyrosine-protein kinase receptor Ret (Homo sapiens), P07949 [V804M]
[21] = target: Ribosomal protein S6 kinase alpha-2 (Homo sapiens) (UniProt Q15349)
[22] = target: T3, Serine/threonine-protein kinase Sgk1 (Homo sapiens) (UniProt O00141)
T3 sequence (whole entry): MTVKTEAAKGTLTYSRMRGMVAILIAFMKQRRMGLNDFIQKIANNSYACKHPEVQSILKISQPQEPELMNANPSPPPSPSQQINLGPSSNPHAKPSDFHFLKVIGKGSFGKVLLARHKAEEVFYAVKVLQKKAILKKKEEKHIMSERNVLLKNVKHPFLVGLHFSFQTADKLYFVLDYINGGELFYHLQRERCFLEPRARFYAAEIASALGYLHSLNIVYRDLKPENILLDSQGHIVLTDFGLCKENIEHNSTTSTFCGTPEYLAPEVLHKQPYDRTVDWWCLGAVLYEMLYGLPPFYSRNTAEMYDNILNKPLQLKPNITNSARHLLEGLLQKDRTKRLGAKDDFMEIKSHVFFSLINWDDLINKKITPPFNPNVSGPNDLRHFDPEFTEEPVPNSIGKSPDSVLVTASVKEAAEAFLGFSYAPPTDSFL

[23] = target: Serine/threonine-protein kinase 25 (Homo sapiens) (UniProt O00506)
Serine/threonine-protein kinase 25 (Homo sapiens), sequence (O00506 whole entry, looked up): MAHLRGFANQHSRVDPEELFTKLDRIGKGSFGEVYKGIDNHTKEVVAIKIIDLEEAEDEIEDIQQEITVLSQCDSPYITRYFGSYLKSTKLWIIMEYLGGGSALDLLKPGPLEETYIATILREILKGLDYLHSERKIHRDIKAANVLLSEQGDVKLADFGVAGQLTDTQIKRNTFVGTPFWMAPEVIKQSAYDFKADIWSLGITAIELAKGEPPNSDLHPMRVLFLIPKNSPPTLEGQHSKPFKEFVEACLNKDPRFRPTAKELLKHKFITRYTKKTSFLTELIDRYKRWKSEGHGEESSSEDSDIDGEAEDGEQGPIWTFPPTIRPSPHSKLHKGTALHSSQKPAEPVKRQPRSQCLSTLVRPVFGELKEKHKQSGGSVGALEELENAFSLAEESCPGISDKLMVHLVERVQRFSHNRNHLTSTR

[24] = target: GABA-A receptor; anion channel (Rattus norvegicus) (UniProt O09028+P15431+P18506+P18508+P19969+P20236+P23574+P23576+P28471+P28473+P30191+P62813+P63079+P63138+Q91ZM7+Q9ES14); settings: Compound concentration 10.0 uM
[25] = Compound concentration 1000.0 nM
[26] = Compound concentration 100.0 nM

Tyrosine-protein kinase BTK (Homo sapiens), sequence (Q06187 whole entry): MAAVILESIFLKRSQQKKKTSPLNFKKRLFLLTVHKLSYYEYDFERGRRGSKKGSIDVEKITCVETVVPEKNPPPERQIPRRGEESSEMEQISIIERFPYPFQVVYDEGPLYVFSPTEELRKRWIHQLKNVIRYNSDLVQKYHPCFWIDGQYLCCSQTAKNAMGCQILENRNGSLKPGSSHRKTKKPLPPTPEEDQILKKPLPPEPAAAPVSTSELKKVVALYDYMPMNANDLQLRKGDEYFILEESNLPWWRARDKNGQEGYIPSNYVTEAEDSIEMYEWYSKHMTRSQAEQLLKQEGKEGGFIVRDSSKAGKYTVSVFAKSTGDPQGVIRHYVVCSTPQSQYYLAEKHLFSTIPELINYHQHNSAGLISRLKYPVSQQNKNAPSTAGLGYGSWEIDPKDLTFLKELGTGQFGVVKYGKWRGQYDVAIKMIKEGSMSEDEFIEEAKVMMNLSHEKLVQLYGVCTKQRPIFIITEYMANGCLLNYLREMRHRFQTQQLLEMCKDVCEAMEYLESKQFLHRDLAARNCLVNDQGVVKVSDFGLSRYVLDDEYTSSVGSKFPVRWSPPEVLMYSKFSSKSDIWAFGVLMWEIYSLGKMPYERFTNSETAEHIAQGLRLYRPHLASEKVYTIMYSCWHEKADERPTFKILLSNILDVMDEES

For C[C@@H]1CN(c2cc(-c3nn(C)c4ccc(OC5(C)CC5)cc34)ncn2)C[C@H](C)O1 [MLi-2-NC], the residual activity [1, 25] was 86%, the residual activity [2, 25] was 70% and the residual activity [3, 25] was 68%. For the same molecule, the residual activity [4, 25] was 80%, the residual activity [5, 25] was 76% and the residual activity [6, 25] was 67%. The residual activity [7, 25] was 100%, the residual activity [8, 25] was 88% and the residual activity [9, 25] was 91%. The residual activity [10, 25] was 100%, the residual activity [11, 25] was 70% and the residual activity [12, 25] was 89%. The residual activity [13, 25] was 100%, the residual activity [14, 25] was 100% and the residual activity [15, 25] was 83%. It also gave a residual activity [16, 25] of 70%, a residual activity [17, 25] of 32% and a residual activity [18, 25] of 66%. The residual activity [19, 25] was 68%, the residual activity [20, 25] was 100% and the residual activity [21, 25] was 100%. For the same molecule, the residual activity [22, 25] was 47%, the residual activity [23, 25] was 100% and the inhibition [24] was 2.92%.

For C[C@@H]1CN(c2cc(-c3n[nH]c4ccc(OC5(C)CC5)cc34)ncn2)C[C@H](C)O1 [MLi-2], the residual activity [1, 26] was 82%, the residual activity [2, 26] was 71% and the residual activity [3, 26] was 91%. For the same molecule, the residual activity [4, 26] was 73%, the residual activity [5, 26] was 63% and the residual activity [6, 26] was 53%. For the same molecule, the residual activity [7, 26] was 86%, the residual activity [8, 26] was 75% and the residual activity [9, 26] was 83%. The residual activity [10, 26] was 88%, the residual activity [11, 26] was 71% and the residual activity [12, 26] was 100%. It also gave a residual activity [13, 26] of 100%, a residual activity [14, 26] of 100% and a residual activity [15, 26] of 94%. It also gave a residual activity [16, 26] of 66%, a residual activity [17, 26] of 81% and a residual activity [18, 26] of 87%. The residual activity [19, 26] was 76%, the residual activity [20, 26] was 97% and the residual activity [21, 26] was 100%. It also gave a residual activity [22, 26] of 89%, a residual activity [23, 26] of 100% and an inhibition [24] of 7.14%.
